Experimental data as given in patent US20240002393A1, “SUBSTITUTED BENZO[f][l ,2,4JTRIAZOL0[4,3-a][l ,4J[…] GABA A GAMMA! POSITIVE ALLOSTERIC MODULATORS” (Hoffmann-La Roche Inc., priority 2020, published 2024).

Legend:
[1] = target: human GABAA α1β2γ1 receptor (Homo sapiens (Human), UniProt P14867+Q8N1C3); assay: Radioligand binding assay, [3H]RO7239181 competition, γ1-containing GABAA subtypes; conditions: HEK293F membranes, [3H]RO7239181 20-30 nM, mean of two determinations
[2] = target: human GABAA α2β2γ1 receptor (Homo sapiens (Human), UniProt P47869+Q8N1C3); assay: as above; conditions: for Ki: HEK293F membranes, [3H]RO7239181 20-30 nM, mean of two determinations, read-out: Ki h-GABAA α2β2γ1; for γ2/γ1 Selectivity Ratio: Ki α1β3γ2 (nM)/Ki α2β2γ1 (nM); for LogSel: Log[Ki α1β3γ2 (nM)/Ki α2β2γ1 (nM)]
[3] = target: human GABAA α5β2γ1 receptor (Homo sapiens (Human), UniProt P31644+Q8N1C3); assay: as above; conditions: HEK293F membranes, mean of two determinations
[4] = target: human GABAA α1β3γ2 receptor (Homo sapiens (Human), UniProt P14867+P18507); assay: Radioligand binding assay, [3H]Flumazenil competition, γ2-containing GABAA subtypes; conditions: HEK293F membranes, [3H]Flumazenil 1 nM, mean of two determinations; read-out: Ki h-GABAA α1β3γ2
Procedure, shortened: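 Competition with [3H]Flumazenil (81.1 Ci/mmol) for binding to HEK293F cells transiently expressing human α1β3γ2 receptors, prepared in Mannitol Buffer pH 7.2-7.4. Incubated 1 hour at 4° C to equilibrium, filtered, washed with ice-cold 50 mM Tris pH 7.5, counted by liquid scintillation. Ki values are means of two determinations.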

| SMILES | Ki [1] | Ki [2] | γ2/γ1 Selectivity Ratio [2] | LogSel [2] | Ki [3] | Ki [4] |
| --- | --- | --- | --- | --- | --- | --- |
| Cc1nnc2n1-c1ccc(I)c(Cl)c1C(c1c(F)cccc1F)=N[C@H]2C [Example 102, (4S)-7-chloro-6-(2,6-difluorophenyl)-8-iodo-1,4-dimethyl-4H-[1,2,4]triazolo[4,3-a][1,4]benzodiazepine] | 6.6 nM | 8 nM | 34.7 | 1.54 | 0.8 nM | 278 nM |
| C[C@@H]1N=C(c2c(F)cccc2F)c2c(ccc(C(F)(F)F)c2Cl)-n2c(CO)nnc21 [Example 103, [(4S)-7-chloro-6-(2,6-difluorophenyl)-4-methyl-8-(trifluoromethyl)-4H-[1,2,4]triazolo[4,3-a][1,4]benzodiazepin-1-yl]methanol] | 49.8 nM | 50.4 nM | 67.0 | 1.83 | 5.4 nM | 3380 nM |
